Experimental data from US8017786B2, “Substituted β-phenyl-α-hydroxy-propanoic acid, synthesis method and use thereof” (Northwest University, priority 2006, dated 2011).
Counter-ions that a name gives are not always drawn.

What was measured:
Type in all cases: in vivo, rat
anesthetized rats = test: Blood pressure and left ventricular function of anesthetized rats; conditions: for change-rate of left intraventricular pressure MAX / change-rate of left intraventricular pressure, -MAX / contractive pressure / diastolic pressure / heart rate / left intraventricular pressure / mean arterial pressure: 11.4 mg/kg duodenal
Procedure: All data were input into PowerLab/8Sp data acquisition and processing system via RM-6000 multi-channel polygraph, and recorded, analyzed and processed by PowerLab/8Sp.
The abdomen was opened 1.5 cm below xiphoid bone to isolate duodenum, a small incision was formed on the duodenum away from blood vessels by ophthalmic scissors, a catheter was inserted and the incision was fixed by suture for administration. After the end of operation and a further waiting period of 30 min, normal data were recorded once the indexes to be monitored were stable.
Test drugs were duodenally administered via the catheter, and the indexes were monitored 5, 15, 30, 60, 90 and 120 min after the administration. The change ratios of the indexes were calculated in accordance with the following formula, and were used for statistic analysis among groups.

[1] = test system: rats with acute myocardial ischemia; test: Area of myocardial infarction in rats with acute myocardial ischemia (coronary artery ligation); conditions: 10 mg/kg intragastric; 24 h after coronary artery ligation
Procedure: (§1) At 0.5 h after the rats of these groups were administered intragastrically, the standard II lead electrocardiogram (before modeling) was recorded, and the height of ST-T segment was measured. The rats of sham operation group were then subjected to coronary artery braid without ligation, and the rats of other groups were subjected to coronary artery ligation in accordance with the following method to establish cute myocardial ischemia models. The rats were subjected to etherization, fixed at supine position, and their normal electrocardiograms (before modeling) were recorded. The skin of left thorax was incised under aseptic conditions, the 4th intercostal muscles were isolated in blunt way, the heart was extruded by light pressure to the right thorax, the left anterior descending coronary artery was ligated at a position 2˜3 mm departing from the left coronary artery origin and between the pulmonary conus and the left auricle of heart, then the heart was sent back to thorax cavity immediately and sutured the incision. Penicillin was smeared topically for the prevention of infections. After operation, the electrocardiogram of postischemia was recorded immediately (at 0 min after modeling), and the height of ST-T segment was measured.

creatine kinase (CK) = test: Serum CK activity in rats with myocardial ischemia; conditions: 10 mg/kg intragastric; serum, 24 h after ligation
Procedure: as §1

[2] = test system: creatine kinase isoenzyme (CK-MB); test: Serum CK-MB activity in rats with myocardial ischemia; conditions: 10 mg/kg intragastric; serum, 24 h after ligation
Procedure: as §1

[3] = test system: lactate dehydrogenase (LDH); test: Serum LDH activity in rats with myocardial ischemia; conditions: 10 mg/kg intragastric; serum, 24 h after ligation
Procedure: as §1

[4] = test system: superoxide dismutase (SOD); test: Serum SOD activity in rats with myocardial ischemia; conditions: 10 mg/kg intragastric; serum, 24 h after ligation
Procedure: as §1

malondialdehyde (MDA) = test: Serum MDA content in rats with myocardial ischemia; conditions: 10 mg/kg intragastric; serum, 24 h after ligation
Procedure: as §1

[5] = test system: rats with acute myocardial ischemia; test: ST-T segment of ECG in rats with myocardial ischemia; conditions: 10 mg/kg intragastric
Procedure: as §1

With COc1ccc(CCN(C)CCCC(C#N)(c2ccc(OC)c(OC)c2)C(C)C)cc1OC (stereo not drawn) [Verapamil, verapamil hydrochloride, reference compound] the “change-rate of left intraventricular pressure MAX” value (anesthetized rats; 5 min after administration) was 4857.7 ± 1002.4 mmHg/s, the “change-rate of left intraventricular pressure, -MAX” value (from here on “change-rate … -MAX”) (anesthetized rats; 5 min after administration) was −3812.9 ± 779.3 mm/Hg/s and the contractive pressure (anesthetized rats; 5 min after administration) was 115.30 ± 19.35 mmHg. The diastolic pressure (anesthetized rats; 5 min after administration) was 59.69 ± 12.55 mmHg, the heart rate (anesthetized rats; 5 min after administration) was 345.03 ± 33.81 beat/min and the left intraventricular pressure (anesthetized rats; 5 min after administration) was 128.71 ± 14.20 mmHg. For the same compound, the mean arterial pressure (anesthetized rats; 5 min after administration) was 78.22 ± 14.31 mmHg, the “change-rate of left intraventricular pressure MAX” value (anesthetized rats; 15 min after administration) was 4284.9 ± 793.2 mmHg/s and the “change-rate … -MAX” value (anesthetized rats; 15 min after administration) was −3548.9 ± 707.7 mm/Hg/s. For the same compound, the contractive pressure (anesthetized rats; 15 min after administration) was 98.48 ± 16.13 mmHg, the diastolic pressure (anesthetized rats; 15 min after administration) was 50.08 ± 9.88 mmHg and the heart rate (anesthetized rats; 15 min after administration) was 324.96 ± 36.20 beat/min. For the same compound, the left intraventricular pressure (anesthetized rats; 15 min after administration) was 120.22 ± 12.98 mmHg, the mean arterial pressure (anesthetized rats; 15 min after administration) was 66.21 ± 11.57 mmHg and the “change-rate of left intraventricular pressure MAX” value (anesthetized rats; 30 min after administration) was 4152.8 ± 901.5 mmHg/s. The “change-rate … -MAX” value (anesthetized rats; 30 min after administration) was −3416.6 ± 767.5 mm/Hg/s, the contractive pressure (anesthetized rats; 30 min after administration) was 94.47 ± 17.17 mmHg and the diastolic pressure (anesthetized rats; 30 min after administration) was 48.00 ± 9.98 mmHg. For the same compound, the heart rate (anesthetized rats; 30 min after administration) was 322.02 ± 51.09 beat/min, the left intraventricular pressure (anesthetized rats; 30 min after administration) was 116.59 ± 13.59 mmHg and the mean arterial pressure (anesthetized rats; 30 min after administration) was 63.49 ± 11.93 mmHg. The “change-rate of left intraventricular pressure MAX” value (anesthetized rats; 60 min after administration) was 3919.4 ± 784.0 mmHg/s, the contractive pressure (anesthetized rats; 60 min after administration) was 98.49 ± 22.31 mmHg and the diastolic pressure (anesthetized rats; 60 min after administration) was 48.81 ± 11.47 mmHg. It also gave a heart rate (anesthetized rats; 60 min after administration) of 317.91 ± 58.04 beat/min, a left intraventricular pressure (anesthetized rats; 60 min after administration) of 115.68 ± 15.37 mmHg and a mean arterial pressure (anesthetized rats; 60 min after administration) of 65.37 ± 14.57 mmHg. For the same compound, the “change-rate of left intraventricular pressure MAX” value (anesthetized rats; 90 min after administration) was 3759.0 ± 814.5 mmHg/s, the “change-rate … -MAX” value (anesthetized rats; 90 min after administration) was −3247.4 ± 773.2 mm/Hg/s and the contractive pressure (anesthetized rats; 90 min after administration) was 99.15 ± 23.91 mmHg. It also gave a diastolic pressure (anesthetized rats; 90 min after administration) of 49.38 ± 13.27 mmHg, a heart rate (anesthetized rats; 90 min after administration) of 329.61 ± 55.70 beat/min and a left intraventricular pressure (anesthetized rats; 90 min after administration) of 115.10 ± 16.60 mmHg. The mean arterial pressure (anesthetized rats; 90 min after administration) was 65.97 ± 16.34 mmHg, the “change-rate of left intraventricular pressure MAX” value (anesthetized rats; 120 min after administration) was 4044.6 ± 844.9 mmHg/s and the “change-rate … -MAX” value (anesthetized rats; 120 min after administration) was −3452.2 ± 630.9 mm/Hg/s. It also gave a contractive pressure (anesthetized rats; 120 min after administration) of 102.58 ± 27.01 mmHg, a diastolic pressure (anesthetized rats; 120 min after administration) of 51.84 ± 13.93 mmHg and a heart rate (anesthetized rats; 120 min after administration) of 328.05 ± 58.98 beat/min. For the same compound, the left intraventricular pressure (anesthetized rats; 120 min after administration) was 118.39 ± 16.55 mmHg, the mean arterial pressure (anesthetized rats; 120 min after administration) was 68.75 ± 17.93 mmHg and the “change-rate of left intraventricular pressure MAX” value (anesthetized rats; before administration) was 5455.9 ± 1418.1 mmHg/s. The “change-rate … -MAX” value (anesthetized rats; before administration) was −4215.6 ± 1058.0 mm/Hg/s, the contractive pressure (anesthetized rats; before administration) was 137.10 ± 28.79 mmHg and the diastolic pressure (anesthetized rats; before administration) was 75.39 ± 19.27 mmHg. For the same compound, the heart rate (anesthetized rats; before administration) was 363.19 ± 46.67 beat/min, the left intraventricular pressure (anesthetized rats; before administration) was 137.79 ± 18.96 mmHg and the mean arterial pressure (anesthetized rats; before administration) was 95.96 ± 22.22 mmHg. The “dp/dt (in words)” value (anesthetized rats; verapamil group (11.4 mg/kg)) was “significantly reduced”, the “effect on the heart rate (in words)” value (anesthetized rats; verapamil group (11.4 mg/kg)) was “significantly reduced” and the “left intraventricular pressure (in words)” value (anesthetized rats; verapamil group (11.4 mg/kg)) was “significantly reduced”. For the same compound, the “−dp/dt (in words)” value (anesthetized rats; verapamil group (11.4 mg/kg)) was “significantly reduced”, the “mean arterial pressure, systolic pressure and diastolic pressure (in words)” value (anesthetized rats; verapamil group (11.4 mg/kg), 5-120 min) was “significantly reduce” and the Infarct region weight [1] was 0.18 ± 0.04 g. The Non-infarct region weight [1] was 0.46 ± 0.08 g, the “Percentage (infarct cardiac muscles of whole ventricle, by weight)” value [1] was 27.60 ± 5.03 % and the Ventricle weight [1] was 0.65 ± 0.09 g. The CK (creatine kinase (CK)) was 752.2 ± 102.8 U/L, the CK-MB [2] was 776.6 ± 127.6 U/L and the LDH [3] was 1160.8 ± 145.0 U/L. The SOD [4] was 126.16 ± 28.10 U/mL, the MDA (malondialdehyde (MDA)) was 11.86 ± 5.93 nmol/mL and the “Elevation of ST-T segment” value ([5]; 0 min after modeling) was 0.23 ± 0.12 mV. For the same compound, the “Elevation of ST-T segment” value ([5]; 24 h after modeling) was 0.18 ± 0.04 mV, the “Elevation of ST-T segment, Change rate” value ([5]; 24 h after modeling) was 19.17 ± 20.94 % and the “Elevation of ST-T segment” value ([5]; before modeling) was 0.23 ± 0.04 mV.
